Data reported in patent US11504355B2, “Ergothioneine compositions and methods for maintaining and/or increasing vitamin C levels in cells and organisms” (Mironova Innovations, LLC, priority 2018, dated 2022).

System: Human skin fibroblasts
Assay: Ascorbic acid colorimetric assay in human skin fibroblasts, with or without alloxan-induced oxidative stress
Assay type: cell-based
Protocol: This example provides methods and results from studies evaluating the effect of ergothioneine on vitamin C in human fibroblast cells. Human skin fibroblasts were cultured for 18 hours in T-25 flasks. Cells were incubated with 1) control solution, 2) magnesium ascorbyl phosphate, or 3) magnesium ascorbyl phosphate+ergothioneine (1:100). Cells in each group were then treated for 6 hours with a) control solution or b) 500 μM alloxan to induce oxidative stress. All samples were assayed for ascorbic acid with an ascorbic acid colorimetric assay (Biovision catalog no. K671). Results are provided in the table below, where ascorbic acid content (nmol) in human skin fibroblasts per one million cells is reported.

[1] = 0.158% of test solution, no alloxan
[2] = 0.158% of test solution, with 500 uM Alloxan (6 hours, oxidative stress)
[3] = 0.5% of test solution, no alloxan
[4] = 0.5% of test solution, with 500 uM Alloxan (6 hours, oxidative stress)
[5] = 1.58% of test solution, no alloxan
[6] = 1.58% of test solution, with 500 uM Alloxan (6 hours, oxidative stress)
[7] = 5% of test solution, no alloxan
[8] = 5% of test solution, with 500 uM Alloxan (6 hours, oxidative stress)

## C[N+](C)(C)[C@@H](Cc1c[nH]c(=S)[nH]1)C(=O)[O-] [ergothioneine]
1:100 ergothioneine (EGT) to magnesium ascorbyl phosphate (MAP), following oxidative stress
  increase of ascorbic acid levels following oxidative stress: up to 300%
FIG. 1, no oxidative stress
  ascorbic acid absorbed by the fibroblast cells with versus without ergothioneine: equally absorbed
FIG. 3, following oxidative stress
  amount of ascorbic acid in fibroblast cells following oxidative stress in the presence of ergothioneine: synergistically increased
Synergistic amount of ergothioneine, summary of the examples
  boost of vitamin C levels in a cell: three-fold or more

## O=C1O[C@H]([C@@H](O)CO)C([O-])=C1OP(=O)([O-])[O-].O=C1O[C@H]([C@@H](O)CO)C([O-])=C1OP(=O)([O-])[O-].[Mg+2].[Mg+2].[Mg+2] [MAP solution, magnesium ascorbyl phosphate]
[1]
  ascorbic acid content in human skin fibroblasts per one million cells, Ave: 10.14 nmol
  ascorbic acid content in human skin fibroblasts per one million cells, Sample A: 9.94 nmol
  ascorbic acid content in human skin fibroblasts per one million cells, Sample B: 10.34 nmol
[2]
  ascorbic acid content in human skin fibroblasts per one million cells, Ave: 4.93 nmol
  ascorbic acid content in human skin fibroblasts per one million cells, Sample A: 4.84 nmol
  ascorbic acid content in human skin fibroblasts per one million cells, Sample B: 5.01 nmol
[3]
  ascorbic acid content in human skin fibroblasts per one million cells, Ave: 21.51 nmol
  ascorbic acid content in human skin fibroblasts per one million cells, Sample A: 21.68 nmol
  ascorbic acid content in human skin fibroblasts per one million cells, Sample B: 21.33 nmol
[4]
  ascorbic acid content in human skin fibroblasts per one million cells, Ave: 9.77 nmol
  ascorbic acid content in human skin fibroblasts per one million cells, Sample A: 9.54 nmol
  ascorbic acid content in human skin fibroblasts per one million cells, Sample B: 9.99 nmol
[5]
  ascorbic acid content in human skin fibroblasts per one million cells, Ave: 49.89 nmol
  ascorbic acid content in human skin fibroblasts per one million cells, Sample A: 49.23 nmol
  ascorbic acid content in human skin fibroblasts per one million cells, Sample B: 50.54 nmol
[6]
  ascorbic acid content in human skin fibroblasts per one million cells, Ave: 12.17 nmol
  ascorbic acid content in human skin fibroblasts per one million cells, Sample A: 11.88 nmol
  ascorbic acid content in human skin fibroblasts per one million cells, Sample B: 12.46 nmol
[7]
  ascorbic acid content in human skin fibroblasts per one million cells, Ave: 50.77 nmol
  ascorbic acid content in human skin fibroblasts per one million cells, Sample A: 50.20 nmol
  ascorbic acid content in human skin fibroblasts per one million cells, Sample B: 51.35 nmol
[8]
  ascorbic acid content in human skin fibroblasts per one million cells, Ave: 13.37 nmol
  ascorbic acid content in human skin fibroblasts per one million cells, Sample A: 13.37 nmol
  ascorbic acid content in human skin fibroblasts per one million cells, Sample B: 13.37 nmol
